Tested on: PDE4
Assay: Inhibition of PDE4 activity (method of Bauer and Schwabe, adapted to microtiter plates)
Assay type: biochemical
Conditions: inhibitory concentration as −log IC50 (mol/l)
Method: The activity test was carried out according to the method of Bauer and Schwabe, which was adapted to microtiter plates (Naunyn-Schmiedeberg's Arch. Pharmacol. 1980, 311, 193-198). The PDE reaction takes place in the first step here. In a second step, the resulting 5′-nucleotide is cleaved by a 5′-nucleotidase of the snake venom of Crotalus atrox to the uncharged nucleoside. In the third step, the nucleoside is separated from the remaining charged substrate on ion-exchange columns. The columns are eluted directly into minivials, into which 2 ml of scintillator fluid are additionally added, for counting using 2 ml of 30 mM ammonium formate (pH 6.0).
The inhibitory values determined for the compounds according to the invention [inhibitory concentration as −log Ic50 (mol/l)] follow from the following Table A, in which the numbers of the compounds correspond to the numbers of the examples.

## COc1cc2c(cc1OC)[C@@H]1CCCC[C@@H]1N=C2c1ccc(C(=O)c2ccc(Cl)cc2)cc1 (relative stereo) [Compound 27, (−)-cis-8,9-Dimethoxy-6-[4-(4-chlorbenzoyl)phenyl]-1,2,3,4,4a,10b-hexahydrophenanthridine]
  −log IC50, inhibition of the PDE4 activity: 7.3

## COc1cc2c(cc1OC)[C@@H]1CCCC[C@@H]1N=C2c1ccc(C(=O)c2cccc(Cl)c2)cc1 (relative stereo) [Compound 28, (−)-cis-8,9-Dimethoxy-6-[4-(3-chlorbenzoyl)phenyl]-1,2,3,4,4a,10b-hexahydrophenanthridine]
  −log IC50, inhibition of the PDE4 activity: 7.61

## COc1cc2c(cc1OC)C1CCCCC1N=C2c1ccc(C(C)=O)cc1 (single isomer, unassigned; (-)) [Compound 2, (−)-cis-8,9-Dimethoxy-6-(4-acetophenyl)-1,2,3,4,4a,10b-hexahydrophenanthridine]
  −log IC50, inhibition of the PDE4 activity: 7.27

## COc1cc2c(cc1OC)C1CCCCC1N=C2c1ccc(OCC2CC2)c(OCC2CC2)c1 (single isomer, unassigned; (-)) [Compound 15, (−)-cis-8,9-Dimethoxy-6-[3,4-bis-(cyclopropylmethoxy)phenyl]-i,2,3,4,4a,10b-hexahydrophenanthridine]
  −log IC50, inhibition of the PDE4 activity: 7.89

## COc1cc2c(cc1OC)C1CCCCC1N=C2c1ccc(C(=O)N2CCCCC2)cc1 (single isomer, unassigned; (-)) [Compound 16, (−)-cis-8,9-Dimethoxy-[4-(piperdin-1-ylcarbonyl)phenyl]-1,2,3,4,4a,10b-hexahydrophenanthridine]
  −log IC50, inhibition of the PDE4 activity: 8.02

## COc1cc2c(cc1OC)C1CCCCC1N=C2c1ccc(CN2CCN(C)CC2)cc1 (single isomer, unassigned; (-)) [Compound 22, (−)-cis-8,9-Dimethoxy-6-[4-(4-methylpiperazin-1-ylmethyl)phenyl]-1,2,3,4,4a,10b-hexphenanthridine]
  −log IC50, inhibition of the PDE4 activity: 7.27

## COc1cc2c(cc1OC)C1CCCCC1N=C2c1ccc(C(=O)c2ccncc2)cc1 (single isomer, unassigned; (-)) [Compound 32, (−)-cis-8,9-Dimethoxy-6-[4-(pyridyl-4-carbonyl)phenyl]-1,2,3,4,4a,10b-hexahydrophenanthridine]
  −log IC50, inhibition of the PDE4 activity: 7.45

## CCOc1cc2c(cc1OC)C(c1ccc(OCC3CC3)c(OCC3CC3)c1)=NC1CCCCC21 (single isomer, unassigned; (-)) [Compound 40, (−)-cis-9-Ethoxy-8-methoxy-6-[3,4-bis(cyclopropylmethoxy)phenyl]-4,2,3,4,4a,10b-hexahydrophenanthridine]
  −log IC50, inhibition of the PDE4 activity: 8.65

## COc1cc2c(cc1OC)C1CCCCC1N=C2c1ccc(OC)c(OC2CCC2)c1 (single isomer, unassigned; (-)) [Compound 44, (−)cis-8,9-Dimethoxy-6-[(3-cyclobutoxy-4-methoxy)phenyl]-1,2,3,4,4a,10b-hexahydrophenanthridine]
  −log IC50, inhibition of the PDE4 activity: 7.58

## COc1cc2c(cc1OC)C1CCCCC1N=C2c1ccc(NC(C)=O)c(OCC2CC2)c1 (single isomer, unassigned; (-)) [Compound 45, (−)-cis-8,9-Dimethoxy-6-[(3-cyclopropylmethoxy-4-acetamido)phenyl]-1,2,3,4,4a,10b-hexahydrophenanthridine]
  −log IC50, inhibition of the PDE4 activity: 8.04

## COc1cc2c(cc1OC)C1CCCCC1N=C2c1ccc(OC)c(N2CCCC2)c1 (single isomer, unassigned; (-)) [Compound 46, (−)-cis-8,9-Dimethoxy-6-[(4-methoxy-3-pyrrolidin-1-yl)phenyl]-1,2,3,4,4a,10b-hexahydrophenanthridine]
  −log IC50, inhibition of the PDE4 activity: 7.16

## COc1cc2c(cc1OC)[C@@H]1CCCC[C@@H]1N=C2c1ccc(C(=O)c2ccccc2)cc1 [Compound 1, (−)-cis-8,9-Dimethoxy-6-(4-benzoylphenyl)-1,2,3,4,4a,10b-hexahydrophenanthridine]
  −log IC50, inhibition of the PDE4 activity: 7.82

## COc1cc2c(cc1OC)[C@@H]1CCCC[C@@H]1N=C2c1cccc(C(=O)c2ccccc2)c1 [Compound 3, (−)-cis-8,9-Dimethoxy-6-(3-benzoylphenyl)-1,2,3,4,4a,10b-hexahydrophenanthridine]
  −log IC50, inhibition of the PDE4 activity: 8.64

## COc1cc2c(cc1OC)[C@@H]1CCCC[C@@H]1N=C2c1cccc(Oc2ccccc2)c1 [Compound 5, (−)-cis-8,9-Dimethoxy-6-(3-phenoxyphenyl)-1,2,3,4,4a,10b-hexahydrophenanthridine]
  −log IC50, inhibition of the PDE4 activity: 8.54

## COc1cc2c(cc1OC)[C@@H]1CCCC[C@@H]1N=C2c1cccc(OCCc2ccccc2)c1 [Compound 8, (−)-cis-8,9-Dimethoxy-6-(3-phenethyloxyphenyl)-1,2,3,4,4a,10b-hexahydrophenanthridine]
  −log IC50, inhibition of the PDE4 activity: 8.41

## COc1cc2c(cc1OC)[C@@H]1CCCC[C@@H]1N=C2c1ccc(OC)c(OC2CCCC2)c1 [Compound 9, (−)-cis-6-(3-Cyclopentyloxy-4-methoxyphenyl)-8,9-dimethoxy-1,2,3,4,4a,10b-hexahydrophenanthridine]
  −log IC50, inhibition of the PDE4 activity: 7.79

## COc1cc2c(cc1OC)[C@@H]1CCCC[C@@H]1N=C2c1ccc(OCc2ccccc2)c(OCC2CC2)c1 [Compound 10, (−)-cis-6-(4-Benzyloxy-3-cyclopropylmethoxyphenyl)-8,9-dimethoxy-1,2,3,4,4a,10b-hexahydrophenanthridine]
  −log IC50, inhibition of the PDE4 activity: 8.09

## COc1cc2c(cc1OC)[C@@H]1CCCC[C@@H]1N=C2c1ccc(OC)c(OCc2ccccc2)c1 [Compound 11, (+)-cis-6-(3-Benzyloxy-4-methoxyphenyl)-8,9-dimethoxy-1,2,3,4,4a,10b-hexahydrophenanthridine]
  −log IC50, inhibition of the PDE4 activity: 8.03

## COc1cc2c(cc1OC)[C@@H]1CCCC[C@@H]1N=C2c1ccc(OC)c(OCC2CC2)c1 [Compound 12, (−)-cis-8,9-Dimethoxy-6-[3-cyclopropylmethoxy4-methoxyphenyl]-1,2,3,4,4a,10b-hexahydrophenanthridine]
  −log IC50, inhibition of the PDE4 activity: 7.80

## COc1cc2c(cc1OC)[C@@H]1CCCC[C@@H]1N=C2c1cccc(OS(C)(=O)=O)c1 [Compound 13, (−)-cis-8,9-Dimethoxy-6-(3-methanesulfonyloxyphenyl)-1,2,3,4,4a,10b-hexahydrophenanthridine]
  −log IC50, inhibition of the PDE4 activity: 8.33

## COc1cc2c(cc1OC)[C@@H]1CCCC[C@@H]1N=C2c1cccc(OS(=O)(=O)c2ccc(C)cc2)c1 [Compound 14, (−)-cis-8,9-Dimethoxy-6-[3-(p-toluenesulfonyloxy)phenyl)-1,2,3,4,4a,10b-hexahydrophenanthridine]
  −log IC50, inhibition of the PDE4 activity: 8.44

## COc1cc2c(cc1OC)[C@@H]1CCCC[C@@H]1N=C2c1ccc(CN2CCOCC2)cc1 [Compound 21, (−)-cis-8,9-Dimethoxy-6-[4-(morpholin-4-ylmethyl)phenyl]-1,2,3,4,4a,10b-hexahydrophenanthridine]
  −log IC50, inhibition of the PDE4 activity: 7.35

## CCOc1cc2c(cc1OC)C(c1ccc(C(=O)c3ccccc3)cc1)=N[C@H]1CCCC[C@@H]21 [Compound 25, (−)-cis-9-Ethoxy-8-methoxy-6-(4-benzoylphenyl)-1,2,3,4,4a,10b-hexahydrophenanthridine]
  −log IC50, inhibition of the PDE4 activity: 8.87

## COc1ccc(C(=O)c2ccc(C3=N[C@H]4CCCC[C@H]4c4cc(OC)c(OC)cc43)cc2)cc1 [Compound 26, (−)-cis-8,9-Dimethoxy-6-[4-(4-methoxybenzoyl)phenyl]-1,2,3,4,4a,10b-hexahydrophenanthridine]
  −log IC50, inhibition of the PDE4 activity: 7.46

## COc1cc2c(cc1OC)[C@@H]1CCCC[C@@H]1N=C2c1ccc(C(=O)c2ccc([N+](=O)[O-])cc2)cc1 [Compound 29, (−)cis-8,9-Dimethoxy-6-[4-(4-nitrobenzoyl)phenyl]-1,2,3,4,4a,10b-hexahydrophenanthridine]
  −log IC50, inhibition of the PDE4 activity: 7.28

## COc1cc2c(cc1OC)[C@@H]1CCCC[C@@H]1N=C2c1ccc(C(=O)c2ccc(C#N)cc2)cc1 [Compound 31, (−)-cis-8,9-Dimethoxy-6-[4-(4-cyanobenzoyl)phenyl]-1,2,3,4,4a,10b-hexahydrophenanthridine]
  −log IC50, inhibition of the PDE4 activity: 7.8

## COc1cc2c(cc1OC)[C@@H]1CCCC[C@@H]1N=C2c1cccc(S(=O)(=O)c2ccccc2)c1 [Compound 33, (−)-cis-8,9-Dimethoxy-6-[3-(phenylsulfonyl)phenyl]-1,2,3,4,4a,10b-hexahydrophenanthridine]
  −log IC50, inhibition of the PDE4 activity: 8.23

## COc1cc2c(cc1OC)[C@@H]1CCCC[C@@H]1N=C2c1ccc(S(=O)(=O)c2ccccc2)cc1 [Compound 34, (−)-cis-8,9-Dimethoxy-6-[4-(phenylsulfonyl)phenyl]-1,2,3,4,4a,10b-hexahydrophenanthridine]
  −log IC50, inhibition of the PDE4 activity: 7.89

## COc1ccc(Oc2cccc(C3=N[C@H]4CCCC[C@H]4c4cc(OC)c(OC)cc43)c2)cc1 [Compound 36, (−)-cis-8,9-Dimethoxy-6-[3-(4-methoxyphenoxy)phenyl]-1,2,3,4,4a,10b-hexahydrophenanthridine]
  −log IC50, inhibition of the PDE4 activity: 8.78

## COc1cc2c(cc1OC)[C@@H]1CCCC[C@@H]1N=C2c1cccc(Oc2ccncc2)c1 [Compound 37, (−)-cis-8,9-Dimethoxy-6-[3-(pyrid-4-yloxy)phenyl]-1,2,3,4,4a,10b-hexahydrophenanthridine]
  −log IC50, inhibition of the PDE4 activity: 7.92

## CCOc1ccc(C2=N[C@H]3CCCC[C@H]3c3cc(OC)c(OC)cc32)cc1OCC1CC1 [Compound 38, (−)-cis-8,9-Dimethoxy-6-(3-cyclopropylmethoxy-4-ethoxyphenyl)-1,2,3,4,4a,10b-hexahydrophenanthridine]
  −log IC50, inhibition of the PDE4 activity: 7.47

Source: patent publication US6476025B1, “Phenylphennanthridines with PDE-IV inhibiting activity” (Altana Pharma AG, priority 1999, dated 2002)
